Results as given in patent US6914045B2, “Glycopeptide antibiotics” (Wyeth Holdings Corporation, priority 2001, dated 2005).
In brackets after ≈: the same amount, converted by molar mass. Numbered stars: 1 amine (or outer) side, 2 acyl side, 3 side chain; on linkers, the order of the positions; unused ones are H or OH. Square brackets hold non-standard residues; d marks the D form. Peptide text beside a SMILES is read from it. * marks the point of attachment. ξ: configuration not given here. X1 = N=C1NCC(C(O)C(N[*:1])C(=O)[*:2])N1C1OC(CO)C(O)C(O)C1O; ξEnduracididine(βξ-OH,4'ξ) = N=C1NCC(C(O)C(N)C(=O)O)N1; X2 = OCC1OC(OC2C(CO)OC(*)C(O)C2O)C(O)C(O)C1O; Cha = N[CH](CC1CCCCC1)C(=O)O

Key:
Enterococcus sp. = assay: in vitro antibacterial evaluation, MIC by broth dilution; type: cell-based; settings: broth dilution, 18 hours at 35° C.
How it was run: (§1)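 Broth dilution per NCCLS standard M7-A2 in Muller-Hinton II […], with an inoculum of 5×10^5 CFU/mL and antibiotic spanning 64-0.06 μg/mL. The MIC is the lowest concentration that inhibits growth of the organism.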

Escherichia coli = assay: as above; type: cell-based; settings: 18 hours at 35° C.
How it was run: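 Step 1: dilute antibiotic across 64-0.06 μg/mL in Muller-Hinton II […]. Step 2: inoculate at 5×10^5 CFU/mL.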

Streptococcus sp. = assay: as above; type: cell-based; settings: broth dilution, 18 hours at 35° C.
How it was run: as §1

Staphylococcus sp. = assay: as above; type: cell-based; settings: broth dilution, 18 hours at 35° C.
How it was run: as §1

[1] = clinical pathology (serum clinical chemistry) in mice; type: in vivo; settings: CD-1 mice, 20 mg/kg intravenously daily for 9 days, sera day 10
Description: 20-day-old CD-1 mice were divided into a vehicle control group (5 mice) and a treatment group (5 mice). Samples of glycopeptide antibiotics were administered at 20 mg/kg intravenously daily for 9 days.

[2] = anatomic pathology (histopathology of heart and kidney) in mice; type: in vivo; settings: CD-1 mice, 20 mg/kg intravenously daily for 9 days, necropsy day 10, microscopic histopathology
Description: Samples of tissues from necropsied mice were formalin-fixed, paraffin-embedded, sectioned, stained with hematoxylin and eosin, and examined microscopically. Histopathologic findings were recorded. These findings were subjectively graded on a scale corresponding to slight, mild, moderate, marked and severe as compared to untreated controls.

N=C1NCC(C(O)C2NC(=O)C(Cc3ccc(OC4OC(CO)C(OC5OC(CO)C(O)C(O)C5O)C(O)C4O)cc3)NC(=O)C(CC3CCCCC3)NC(=O)CNC(=O)C(CO)NC(=O)C(C(O)C3CNC(=N)N3C3OC(CO)C(O)C(O)C3O)NC2=O)N1 (stereo not drawn) [Example 263, Cyclo[3-cyclohexylalanyl-O-(4-O-hexopyranosylhexopyranosyl)tyrosyl-3-(2-iminoimidazolidin-4-yl)seryl-3-(3-hexopyranosyl-2-iminoimidazolidin-4-yl)serylserylglycyl]] (cyclo(G[Cha]Y(X2)[ξEnduracididine(βξ-OH,4'ξ)][X1]S); configuration not given here)
MIC Enterococcus avium (GC 4558) (Enterococcus sp.; Enterococcus avium (GC 4558)): >64 µg/mL
MIC Enterococcus faecalis (ATCC 29212) (Enterococcus sp.; Enterococcus faecalis (ATCC 29212)): >64 µg/mL
MIC Enterococcus faecalis (GC 4553) (Enterococcus sp.; Enterococcus faecalis (GC 4553)): >64 µg/mL
MIC Enterococcus faecalis (GC 4554) (Enterococcus sp.; Enterococcus faecalis (GC 4554)): >64 µg/mL
MIC Enterococcus faecium (GC 2243) (Enterococcus sp.; Enterococcus faecium (GC 2243)): >64 µg/mL
MIC Enterococcus faecium (GC 4556) (Enterococcus sp.; Enterococcus faecium (GC 4556)): >64 µg/mL
MIC Enterococcus faecium (GC 4557) (Enterococcus sp.; Enterococcus faecium (GC 4557)): 32 µg/mL (≈ 24.9 µM)
MIC Enterococcus faecalis (ATCC 29212) (Enterococcus sp.; strain ATCC 29212): >64 µg/mL
MIC Enterococcus faecalis (GC 2242) (Enterococcus sp.; strain GC 2242): >64 µg/mL
MIC Enterococcus faecium (GC 2243) (Enterococcus sp.; strain GC 2243): >64 µg/mL
MIC Enterococcus faecalis (GC 4552) (Enterococcus sp.; strain GC 4552): >64 µg/mL
MIC Enterococcus faecalis (GC 4553) (Enterococcus sp.; strain GC 4553): >64 µg/mL
MIC Enterococcus faecalis (GC 4554) (Enterococcus sp.; strain GC 4554): >64 µg/mL
MIC Enterococcus faecium (GC 4556) (Enterococcus sp.; strain GC 4556): >64 µg/mL
MIC Enterococcus faecium (GC 4557) (Enterococcus sp.; strain GC 4557): 32 µg/mL (≈ 24.9 µM)
MIC Enterococcus avium (GC 4558) (Enterococcus sp.; strain GC 4558): >64 µg/mL
MIC Escherichia coli (ATCC 25922) (Escherichia coli; Escherichia coli (ATCC 25922)): >64 µg/mL
MIC Escherichia coli (GC 4559) (Escherichia coli; Escherichia coli (GC 4559)): >64 µg/mL
MIC Escherichia coli (GC 4560) (Escherichia coli; Escherichia coli (GC 4560)): 16 µg/mL (≈ 12.4 µM)
MIC Streptococcus agalactiae (GC 4564) (Streptococcus sp.; strain GC 4564): 32 µg/mL (≈ 24.9 µM)
MIC Streptococcus pyogenes (ID-3187) (Streptococcus sp.; strain ID-3187): 32 µg/mL (≈ 24.9 µM)
MIC Coagulase Negative Staphylococcus (GC 4547) (Staphylococcus sp.): 64 µg/mL (≈ 49.7 µM)
MIC Coagulase Negative Staphylococcus (GC 4548) (Staphylococcus sp.): 32 µg/mL (≈ 24.9 µM)
MIC Coagulase Negative Staphylococcus (GC 4549) (Staphylococcus sp.): 16 µg/mL (≈ 12.4 µM)
MIC Coagulase Negative Staphylococcus (GC 4551) (Staphylococcus sp.): 64 µg/mL (≈ 49.7 µM)
MIC Staphylococcus aureus (ATCC 29213) (Staphylococcus sp.): 64 µg/mL (≈ 49.7 µM)
MIC Staphylococcus aureus (GC 1131) (Staphylococcus sp.): 64 µg/mL (≈ 49.7 µM)
MIC Staphylococcus aureus (GC 4541) (Staphylococcus sp.): 64 µg/mL (≈ 49.7 µM)
MIC Staphylococcus aureus (GC 4542) (Staphylococcus sp.): 64 µg/mL (≈ 49.7 µM)
MIC Staphylococcus aureus (GC 4544) (Staphylococcus sp.): >64 µg/mL
MIC Staphylococcus aureus (GC 4545) (Staphylococcus sp.): 64 µg/mL (≈ 49.7 µM)
MIC Staphylococcus aureus-SMITH (GC 4543) (Staphylococcus sp.): 32 µg/mL (≈ 24.9 µM)
MIC Staphylococcus haemolyticus (GC 4546) (Staphylococcus sp.): 32 µg/mL (≈ 24.9 µM)
MIC Staphylococcus aureus (ATCC 29213) (Staphylococcus sp.; strain ATCC 29213): 64 µg/mL (≈ 49.7 µM)
MIC Staphylococcus aureus (GC 1131) (Staphylococcus sp.; strain GC 1131): 64 µg/mL (≈ 49.7 µM)
MIC Staphylococcus aureus (GC 4541) (Staphylococcus sp.; strain GC 4541): 64 µg/mL (≈ 49.7 µM)
MIC Staphylococcus aureus (GC 4542) (Staphylococcus sp.; strain GC 4542): 64 µg/mL (≈ 49.7 µM)
MIC Staphylococcus aureus (GC 4544) (Staphylococcus sp.; strain GC 4544): >64 µg/mL
MIC Staphylococcus aureus (GC 4545) (Staphylococcus sp.; strain GC 4545): 64 µg/mL (≈ 49.7 µM)
MIC Staphylococcus haemolyticus (GC 4546) (Staphylococcus sp.; strain GC 4546): 32 µg/mL (≈ 24.9 µM)
MIC Coagulase Negative Staphylococcus (GC 4547) (Staphylococcus sp.; strain GC 4547): 64 µg/mL (≈ 49.7 µM)
MIC Coagulase Negative Staphylococcus (GC 4548) (Staphylococcus sp.; strain GC 4548): 32 µg/mL (≈ 24.9 µM)
MIC Coagulase Negative Staphylococcus (GC 4549) (Staphylococcus sp.; strain GC 4549): 16 µg/mL (≈ 12.4 µM)
MIC Coagulase Negative Staphylococcus (GC 4551) (Staphylococcus sp.; strain GC 4551): 64 µg/mL (≈ 49.7 µM)
MIC Staphylococcus aureus-SMITH (GC 4543) (Staphylococcus sp.; strain SMITH GC 4543): 32 µg/mL (≈ 24.9 µM)
Clinical Chemistry (Day 10) % of Control, Creatinine [1]: +116%
Anatomical Pathology (Day 10), Heart [2]: +
Anatomical Pathology (Day 10), Kidney [2]: ++
